Test results from paper PMC5726399 (Neuropharmacology, 2017).
“Also recorded” adds a separate entry of the source. Structures can show the parent of a compound that is named as a salt. Where two headings read alike, the source gives them in different places. Where no end group is shown, it is not given here.

Tests used:
NMDA receptors [1] = conditions: ref Chen et al., 2010, cited from earlier work; for effect on NMDA-induced substance P release: Marvizon et al., 1997
AC/PKA pathway = assay: NK1R internalization induced by forskolin or 8-Br-cAMP in slices; design: species or system rat; conditions: 60 min; for NK1R internalization elicited: 10 μM forskolin or 0.5 mM 8-Br-cAMP, no NMDA
[2] = system: NMDA receptor-induced substance P release; assay: NMDA-induced NK1R internalization in slices preincubated with BVT948; design: species or system rat; conditions: 10 μM BVT948, 60 min preincubation
protein kinase A (PKA) = assay: PKA inhibition: NMDA-induced NK1R internalization in slices; design: species or system rat; conditions: 10 μM, 60 min
[3] = system: CTX-insensitive component of NMDA-induced substance P release; assay: CTX-insensitive component of NMDA-induced substance P release in slices; design: species or system rat; conditions: 1 μM DAMGO, 100 μM SQ22536 or 10 μM KT5720, 60 min; for additional inhibition in presence of CTX GVIA: 1 μM CTX GVIA; for additional inhibition in presence of CTX MVIIC: 1 μM CTX MVIIC
NMDA receptors [4] = assay: NMDA-induced NK1R internalization in spinal cord slices; design: species or system rat; conditions: 10 μM NMDA + 10 μM D-Ser, 2 min, 35 °C
[5] = system: substance P release / NK1R internalization in lamina I neurons; assay: In vivo NK1R internalization induced by intrathecal NMDA; design: species or system rat; conditions: for lamina 1 neurons with NK1R internalization in example image: confocal image, one rat per group, L4
[6] = system: NMDA receptors in DRG neurons; format: cell-based, rat
protein kinase C (PKC) = assay: PKC inhibitors and activators: NMDA-induced NK1R internalization in slices; design: species or system rat; conditions: for effect on NMDA-induced substance P release: 60 min
adenylyl cyclase (AC) = assay: AC inhibition: NMDA-induced NK1R internalization in slices; design: species or system rat; conditions: SQ22536 10 μM, 60 min
TRPV1 channels [7] = conditions: cited from earlier work
TRPV1 channels [8] = system: TRPV1 channels; design: species or system rat
[9] = target: NMDA receptors with the NR2B subunit (Rattus norvegicus, UniProt P35439+Q00960); conditions: % NK1R internalization
NR1a/NR2B NMDA receptors = conditions: Xenopus oocytes; ref Williams, 1993; cited from earlier work
rat brain membranes = conditions: ref Grimwood et al., 2000; cited from earlier work
GIRK channels = system: GIRK channels; design: species or system rat
[10] = system: NMDA receptor-induced substance P release; assay: NMDA-induced NK1R internalization in slices preincubated with BDNF; design: species or system rat
[11] = chelerythrine 10 μM, Ro-32-0432, TPPB 1 μM, with 10 nM DAMGO
[12] = chelerythrine 10 μM, Ro-32-0432, TPPB, PMA 1 μM

Chain of NMDA receptors with the NR2B subunit (Q00960 27-1482, other chains not shown): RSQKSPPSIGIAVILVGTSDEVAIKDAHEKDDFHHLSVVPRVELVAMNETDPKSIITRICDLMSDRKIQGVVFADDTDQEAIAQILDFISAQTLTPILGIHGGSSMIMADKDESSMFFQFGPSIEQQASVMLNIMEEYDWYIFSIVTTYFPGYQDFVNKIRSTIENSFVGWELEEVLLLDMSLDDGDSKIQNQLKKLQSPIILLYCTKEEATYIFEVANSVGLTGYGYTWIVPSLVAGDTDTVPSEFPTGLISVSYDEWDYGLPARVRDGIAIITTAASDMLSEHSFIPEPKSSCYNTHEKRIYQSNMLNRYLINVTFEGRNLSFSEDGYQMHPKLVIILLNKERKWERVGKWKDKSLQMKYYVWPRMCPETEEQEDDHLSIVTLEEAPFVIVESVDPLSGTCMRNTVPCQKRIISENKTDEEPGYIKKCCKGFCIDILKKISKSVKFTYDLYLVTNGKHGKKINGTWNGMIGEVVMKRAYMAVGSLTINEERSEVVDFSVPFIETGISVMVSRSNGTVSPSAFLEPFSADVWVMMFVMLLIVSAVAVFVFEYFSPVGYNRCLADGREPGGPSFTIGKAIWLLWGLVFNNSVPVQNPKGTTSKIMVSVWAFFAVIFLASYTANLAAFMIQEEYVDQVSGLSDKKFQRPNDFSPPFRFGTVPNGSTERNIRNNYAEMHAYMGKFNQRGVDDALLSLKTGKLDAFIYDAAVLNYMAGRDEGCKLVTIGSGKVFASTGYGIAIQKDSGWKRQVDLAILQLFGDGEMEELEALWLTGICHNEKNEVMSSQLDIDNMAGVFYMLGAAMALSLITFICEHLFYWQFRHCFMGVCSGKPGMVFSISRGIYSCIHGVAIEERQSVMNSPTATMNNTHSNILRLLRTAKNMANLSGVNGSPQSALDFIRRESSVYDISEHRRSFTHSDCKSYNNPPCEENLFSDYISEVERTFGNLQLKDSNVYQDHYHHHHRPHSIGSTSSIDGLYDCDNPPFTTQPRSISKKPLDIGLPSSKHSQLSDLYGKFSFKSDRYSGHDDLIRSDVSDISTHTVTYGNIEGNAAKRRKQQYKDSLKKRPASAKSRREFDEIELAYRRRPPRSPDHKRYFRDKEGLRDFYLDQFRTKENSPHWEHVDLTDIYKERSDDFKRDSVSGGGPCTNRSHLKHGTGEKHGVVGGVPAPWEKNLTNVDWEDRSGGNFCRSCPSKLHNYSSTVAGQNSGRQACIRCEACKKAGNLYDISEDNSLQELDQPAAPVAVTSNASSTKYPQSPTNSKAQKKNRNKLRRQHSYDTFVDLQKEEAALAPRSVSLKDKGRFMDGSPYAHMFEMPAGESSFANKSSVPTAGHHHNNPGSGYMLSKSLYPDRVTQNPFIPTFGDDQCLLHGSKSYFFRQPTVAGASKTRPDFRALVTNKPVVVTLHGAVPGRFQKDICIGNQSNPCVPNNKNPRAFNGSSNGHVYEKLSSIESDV

NC(CCCP(=O)(O)O)C(=O)O (centres unmarked) [2-amino-phosphopentanoic acid]
effect on NMDA-induced substance P release (NMDA receptors [1]): inhibited

Nc1ncnc2c1nc(Br)n2[C@@H]1O[C@@H]2COP(=O)(O)O[C@H]2[C@H]1O [8-Br-cAMP, 8-Bromoadenosine-3′,5′-cyclic monophosphate]
NK1R internalization elicited (AC/PKA pathway): greater than NMDA+D-Ser, with 8-Br-cAMP producing the larger effect

CC1(C)C(=O)N=C2C1=C(O)C(=O)c1ccccc12 [BVT948, 4-hydroxy-3,3-dimethyl-2H-benz[g]indole-2,5(3H)-dione]
effect on NMDA-induced NK1R internalization [2]: substantially increased NMDA-induced NK1R internalization

CCCCCCOC(=O)[C@]1(O)C[C@@H]2O[C@@]1(C)n1c3ccccc3c3c4c(c5c6ccccc6n2c5c31)C(=O)NC4 [KT5720, (9R,10S,12S)-2,3,9,10,11,12-Hexahydro-10-hydroxy-9-methyl-1-oxo-9,12-epoxy-1H-diindolo[1,2,3-fg:3′,2′,1′-kl]pyrrolo[3,4-i][1,6]benzodiazocine-10-carboxylic acid, hexyl ester]
effect on NMDA-induced NK1R internalization (protein kinase A (PKA)): did not completely abolish NMDA-induced NK1R internalization
effect on NMDA-induced NK1R internalization (protein kinase A (PKA); listed as KT 5720): decreased
additional inhibition in presence of CTX GVIA [3]: did not produce any further inhibition
additional inhibition in presence of CTX MVIIC [3]: did not produce any further inhibition

C[C@]12N[C@H](Cc3ccccc31)c1ccccc12 [MK-801, (5S,10R)-(+)-5-Methyl-10,11-dihydro-5H-dibenzo[a, d]cyclohepten-5,10-imine maleate]
effect on forskolin-evoked substance P release (AC/PKA pathway; 10 μM MK-801 or 1 μM DAMGO with 10 μM forskolin): substantially decreased their effect on substance P release, although not to control levels
effect on 8-Br-cAMP-evoked substance P release (AC/PKA pathway; 10 μM MK-801 or 1 μM DAMGO with 0.5 mM 8-Br-cAMP): substantially decreased their effect on substance P release, although not to control levels
effect on NMDA-induced substance P release (NMDA receptors [1]): inhibited

CN[C@H](CC(=O)O)C(=O)O [NMDA, N-methyl-D-aspartate]
NK1R internalization induced (lamina I NK1R neurons) (NMDA receptors [4]): about 50%
lamina 1 neurons with NK1R internalization in example image [5]: there was no NK1R internalization
[Ca2+]i increase [6]: increases in some of the neurons

CN(C)C[C@H]1CCn2c(c(C3=C(c4cn(C)c5ccccc45)C(=O)NC3=O)c3ccccc32)C1.Cl [Ro-32-0432, 3-[(8S)-8-[(Dimethylamino)methyl]-6,7,8,9-tetrahydropyrido[1,2-a]indol-10-yl]-4-(1-methyl-1H-indol-3-yl)-1H-pyrrole-2,5-dione hydrochloride]
effect on inhibition by 10 nM DAMGO (protein kinase C (PKC); [11]): did not increase its inhibition by DAMGO
effect on NMDA-induced substance P release (protein kinase C (PKC); [12]): did not affect NMDA-induced substance P release

Nc1ncnc2c1ncn2C1CCCO1 (centres unmarked) [SQ22536, 9-(Tetrahydro-2-furanyl)-9H-purin-6-amine]
effect on NMDA-induced NK1R internalization (adenylyl cyclase (AC)): but not at 10 μM
additional inhibition in presence of CTX GVIA [3]: did not produce any further inhibition
additional inhibition in presence of CTX MVIIC [3]: did not produce any further inhibition

CC(C)[C@H]1C(=O)N[C@H](CO)Cc2cc(NC(=O)/C=C/C=C/c3ccc(C(F)(F)F)cc3)ccc2N1C [TPPB, (2E4E)-N-[(2S,5S)-1,2,3,4,5,6-Hexahydro-5-(hydroxymethyl)-1-methyl-2-(1-methylethyl)-3-oxo-1,4-benzodiazocin-8-yl]-5-[4-(trifluoromethyl)phenyl]-2,4-pentadienamide]
effect on inhibition by 10 nM DAMGO (protein kinase C (PKC)): did not affect inhibition by 10 nM DAMGO
effect on NMDA-induced substance P release (protein kinase C (PKC)): strongly increased NMDA-induced substance P release

NCC(CC(=O)O)c1ccc(Cl)cc1 (centres unmarked) [baclofen]
effect on substance P release by dorsal root or low-concentration capsaicin (TRPV1 channels [7]; capsaicin on dorsal root or low concentrations, ref Lao et al., 2003): can be inhibited
effect on substance P release by higher concentrations of capsaicin (TRPV1 channels [7]; higher capsaicin concentrations, ref Lao et al., 2003): did not inhibit substance P release

COc1cc(CNC(=O)CCCC/C=C/C(C)C)ccc1O [capsaicin]
NK1R internalization elicited by 0.3 μM capsaicin (TRPV1 channels [8]): 75%
NK1R internalization elicited by 1 μM capsaicin (TRPV1 channels [8]): maximal NK1R internalization
effect of substance P depletion on NMDA-induced substance P release (NMDA receptors [1]; C-fibers depleted by incubating slices with capsaicin): disappears
EC50 (TRPV1 channels [7]; read-out: EC50 to induce NK1R internalization, ref Marvizon et al., 2003a): 370 nM

Oc1cc2c(cc1O)CN(C(=S)NCCc1ccc(Cl)cc1)CCC2 [capsazepine]
effect on capsaicin-induced substance P release (TRPV1 antagonist) (TRPV1 channels [7]; ref Lao et al., 2003): blocked

COc1ccc2c(c[n+](C)c3c4cc5c(cc4ccc23)OCO5)c1OC [chelerythrine]
effect on inhibition by 10 nM DAMGO (protein kinase C (PKC); [11]): did not increase its inhibition by DAMGO; also recorded: showed a trend to decrease the inhibition by 10 nM DAMGO
effect on NMDA-induced substance P release (protein kinase C (PKC); [12]): did not affect NMDA-induced substance P release

C=C[C@@]1(C)CC(=O)[C@]2(O)[C@@]3(C)[C@@H](O)CCC(C)(C)[C@@H]3[C@H](O)[C@H](OC(C)=O)[C@@]2(C)O1 [forskolin]
NK1R internalization elicited (AC/PKA pathway): greater than NMDA+D-Ser

CC(C(O)c1ccc(O)cc1)N1CCC(Cc2ccccc2)CC1 (centres unmarked) [ifenprodil]
top [9]: 62 ± 3%
bottom ([9]; basal without NMDA 12±1%): 26 ± 2%
potency to inhibit currents (NR1a/NR2B NMDA receptors): 340 nM
Kd (rat brain membranes): 25 nM

CCN(CC)CC(=O)Nc1c(C)cccc1C [lidocaine]
effect on NMDA-induced substance P release (action potential block) (NMDA receptors [1]): not affected

PKI 14–22: protein kinase inhibitor 14–22, PKA inhibitor (GRTGRRNAI; also: myristoylated; UniProt P61925 15-23, looked up, fragment)
effect on NMDA-induced NK1R internalization (protein kinase A (PKA)): decreased

tertiapin Q
effect on NMDA-induced NK1R internalization (GIRK channels): small but significant inhibition
effect on inhibition by DAMGO (GIRK channels): did not affect the inhibition by DAMGO

B1: BDNF: brain-derived neurotrophic factor (protein, UniProt P23560 19-247, looked up)
Neurotrophic factor BDNF …: APMKEANIRGQGGLAYPGVRTHGTLESVNGPKAGSRGLTSLADTFEHVIEELLDEDQKVRPNEENNKDADLYTSRVMLSSQVPLEPPLLFLLEEYKNYLDAANMSMRVRRHSDPARRGELSVCDSISEWVTAADKKTAVDMSGGTVTVLEKVPVSKGQLKQYFYETKCNPMGYTKEGCRGIDKRHWNSQCRTTQSYVRALTMDSKKRIGWRFIRIDTSCVCTLTIKRGR
lamina 1 neurons with NK1R internalization in example image [5]: 5 out of 7 cells
effect of BDNF on NMDA-induced NK1R internalization ([5]; intrathecal BDNF 0.3 μg, 4 h before NMDA + D-Ser, p<0.01 vs NMDA): significant increase in NMDA-induced NK1R internalization
effect on NMDA-induced NK1R internalization [10]: increased NMDA-induced NK1R internalization
